Experimental data: PMC9571063 (Molecules, 2022)
Read-outs that look alike come from different tables or passages of the source.

How the values were obtained:
[1] = target: T1, CDK9 (Homo sapiens, UniProt P50750); experiment: KINOMEscan; format: binding; details: read-out: Percent Control
T1 construct: purchased Eurofins DiscoverX KINOMEscan (scanMAX 468)

[2] = target: T2, DAPK2 (Homo sapiens, UniProt Q9UIK4); experiment: KINOMEscan; format: binding; details: read-out: Percent Control
T2 construct: purchased Eurofins DiscoverX KINOMEscan (scanMAX 468)

[3] = target: T3, EGFR(S752-I759del) (Homo sapiens, UniProt P00533, DEL752-759); experiment: KINOMEscan; format: binding; details: read-out: Percent Control
T3 construct: purchased Eurofins DiscoverX KINOMEscan (scanMAX 468)

[4] = target: T4, ERBB2 (Homo sapiens, UniProt P04626); experiment: KINOMEscan; format: binding; details: read-out: Percent Control
T4 construct: purchased Eurofins DiscoverX KINOMEscan (scanMAX 468)

[5] = target: T5, FGFR1 (Homo sapiens, UniProt P11362); experiment: KINOMEscan; format: binding; details: read-out: Percent Control
T5 construct: purchased Eurofins DiscoverX KINOMEscan (scanMAX 468)

[6] = target: T6, FGFR2 (Homo sapiens, UniProt P21802); experiment: KINOMEscan; format: binding; details: read-out: Percent Control
T6 construct: purchased Eurofins DiscoverX KINOMEscan (scanMAX 468)

[7] = target: T7, FLT1 (Homo sapiens, UniProt P17948); experiment: KINOMEscan; format: binding; details: read-out: Percent Control
T7 construct: purchased Eurofins DiscoverX KINOMEscan (scanMAX 468)

[8] = target: T8, FLT3(D835H) (Homo sapiens, UniProt P36888, D835H); experiment: KINOMEscan; format: binding; details: read-out: Percent Control
T8 construct: purchased Eurofins DiscoverX KINOMEscan (scanMAX 468)

[9] = test system: FLT3(ITD); experiment: KINOMEscan; format: binding, human; details: 1 μM
[10] = target: T9, GRK4 (Homo sapiens, UniProt P32298); experiment: KINOMEscan; format: binding; details: read-out: Percent Control
T9 construct: purchased Eurofins DiscoverX KINOMEscan (scanMAX 468)

[11] = target: T10, HIPK2 (Homo sapiens, UniProt Q9H2X6); experiment: KINOMEscan; format: binding; details: read-out: Percent Control
T10 construct: purchased Eurofins DiscoverX KINOMEscan (scanMAX 468)

[12] = target: T11, IKK-epsilon (Homo sapiens, UniProt Q14164); experiment: KINOMEscan; format: binding; details: read-out: Percent Control
T11 construct: purchased Eurofins DiscoverX KINOMEscan (scanMAX 468)

[13] = target: T12, KIT(D816V) (Homo sapiens, UniProt P10721, D816V); experiment: KINOMEscan; format: binding; details: read-out: Percent Control
T12 construct: purchased Eurofins DiscoverX KINOMEscan (scanMAX 468)

[14] = target: T13, MAP3K15 (Homo sapiens, UniProt Q6ZN16); experiment: KINOMEscan; format: binding; details: read-out: Percent Control
T13 construct: purchased Eurofins DiscoverX KINOMEscan (scanMAX 468)

[15] = target: T14, MAP3K3 (Homo sapiens, UniProt Q99759); experiment: KINOMEscan; format: binding; details: read-out: Percent Control
T14 construct: purchased Eurofins DiscoverX KINOMEscan (scanMAX 468)

[16] = target: T15, MAPKAPK2 (Homo sapiens, UniProt P49137); experiment: KINOMEscan; format: binding; details: read-out: Percent Control
T15 construct: purchased Eurofins DiscoverX KINOMEscan (scanMAX 468)

[17] = target: T16, MARK3 (Homo sapiens, UniProt P27448); experiment: KINOMEscan; format: binding; details: read-out: Percent Control
T16 construct: purchased Eurofins DiscoverX KINOMEscan (scanMAX 468)

[18] = target: T17, MEK2 (Homo sapiens, UniProt P36507); experiment: KINOMEscan; format: binding; details: read-out: Percent Control
T17 construct: purchased Eurofins DiscoverX KINOMEscan (scanMAX 468)

[19] = target: T18, MEK6 (Homo sapiens, UniProt P52564); experiment: KINOMEscan; format: binding; details: read-out: Percent Control
T18 construct: purchased Eurofins DiscoverX KINOMEscan (scanMAX 468)

[20] = target: T19, MLCK (Homo sapiens, UniProt Q32MK0); experiment: KINOMEscan; format: binding; details: read-out: Percent Control
T19 construct: purchased Eurofins DiscoverX KINOMEscan (scanMAX 468)

[21] = target: T20, MST2 (Homo sapiens, UniProt Q13188); experiment: KINOMEscan; format: binding; details: read-out: Percent Control
T20 construct: purchased Eurofins DiscoverX KINOMEscan (scanMAX 468)

[22] = target: T21, MYLK2 (Homo sapiens, UniProt Q9H1R3); experiment: KINOMEscan; format: binding; details: read-out: Percent Control
T21 construct: purchased Eurofins DiscoverX KINOMEscan (scanMAX 468)

[23] = target: T22, NEK11 (Homo sapiens, UniProt Q8NG66); experiment: KINOMEscan; format: binding; details: read-out: Percent Control
T22 construct: purchased Eurofins DiscoverX KINOMEscan (scanMAX 468)

[24] = target: T23, p38-alpha (Homo sapiens, UniProt Q16539); experiment: KINOMEscan; format: binding; details: read-out: Percent Control
T23 construct: purchased Eurofins DiscoverX KINOMEscan (scanMAX 468)

[25] = target: T24, p38-beta (Homo sapiens, UniProt Q15759); experiment: KINOMEscan; format: binding; details: read-out: Percent Control
T24 construct: purchased Eurofins DiscoverX KINOMEscan (scanMAX 468)

[26] = target: T25, PAK1 (Homo sapiens, UniProt Q13153); experiment: KINOMEscan; format: binding; details: read-out: Percent Control
T25 construct: purchased Eurofins DiscoverX KINOMEscan (scanMAX 468)

[27] = target: T26, PAK3 (Homo sapiens, UniProt O75914); experiment: KINOMEscan; format: binding; details: read-out: Percent Control
T26 construct: purchased Eurofins DiscoverX KINOMEscan (scanMAX 468)

[28] = target: T27, PFCDPK1(P.falciparum) (Plasmodium falciparum, UniProt P62344); experiment: KINOMEscan; format: binding; details: read-out: Percent Control
T27 construct: purchased Eurofins DiscoverX KINOMEscan (scanMAX 468)

[29] = target: T28, PFTAIRE2 (Homo sapiens, UniProt Q96Q40); experiment: KINOMEscan; format: binding; details: read-out: Percent Control
T28 construct: purchased Eurofins DiscoverX KINOMEscan (scanMAX 468)

[30] = target: T29, PIK3C2G (Homo sapiens, UniProt O75747); experiment: KINOMEscan; format: binding; details: read-out: Percent Control
T29 construct: purchased Eurofins DiscoverX KINOMEscan (scanMAX 468)

[31] = target: T30, PIK3CB (Homo sapiens, UniProt P42338); experiment: KINOMEscan; format: binding; details: read-out: Percent Control
T30 construct: purchased Eurofins DiscoverX KINOMEscan (scanMAX 468)

[32] = target: T31, PIP5K2B (Homo sapiens, UniProt P78356); experiment: KINOMEscan; format: binding; details: read-out: Percent Control
T31 construct: purchased Eurofins DiscoverX KINOMEscan (scanMAX 468)

[33] = target: T32, PIP5K2C (Homo sapiens, UniProt Q8TBX8); experiment: KINOMEscan; format: binding; details: read-out: Percent Control
T32 construct: purchased Eurofins DiscoverX KINOMEscan (scanMAX 468)

[34] = target: T33, PKAC-alpha (Homo sapiens, UniProt P17612); experiment: KINOMEscan; format: binding; details: read-out: Percent Control
T33 construct: purchased Eurofins DiscoverX KINOMEscan (scanMAX 468)

[35] = target: T34, PKAC-beta (Homo sapiens, UniProt P22694); experiment: KINOMEscan; format: binding; details: read-out: Percent Control
T34 construct: purchased Eurofins DiscoverX KINOMEscan (scanMAX 468)

[36] = target: T35, PLK4 (Homo sapiens, UniProt O00444); experiment: KINOMEscan; format: binding; details: read-out: Percent Control
T35 construct: purchased Eurofins DiscoverX KINOMEscan (scanMAX 468)

[37] = target: T36, TNIK (Homo sapiens, UniProt Q9UKE5); experiment: KINOMEscan; format: binding; details: read-out: Percent Control
T36 construct: purchased Eurofins DiscoverX KINOMEscan (scanMAX 468)

[38] = target: T37, MmCLK1 (Mus musculus, UniProt P22518); set-up: method as in ref 13 (a number printed in a supplementary file, which may have a reference list of its own: not looked up in the article's list); details: DB18, cited from earlier work
T37 construct: host or cells: bacteria

[39] = test system: HuH7; set-up: method as in ref 14 (a number printed in a supplementary file, which may have a reference list of its own: not looked up in the article's list); details: DB18[a], footnote not given; read-out: Cytotoxic studies IC50 HuH7; cited from earlier work
[40] = test system: MCF7; set-up: method as in ref 14 (a number printed in a supplementary file, which may have a reference list of its own: not looked up in the article's list); details: DB18[a], footnote not given; read-out: Cytotoxic studies IC50 MCF7; cited from earlier work

T37 sequence (P22518 whole entry): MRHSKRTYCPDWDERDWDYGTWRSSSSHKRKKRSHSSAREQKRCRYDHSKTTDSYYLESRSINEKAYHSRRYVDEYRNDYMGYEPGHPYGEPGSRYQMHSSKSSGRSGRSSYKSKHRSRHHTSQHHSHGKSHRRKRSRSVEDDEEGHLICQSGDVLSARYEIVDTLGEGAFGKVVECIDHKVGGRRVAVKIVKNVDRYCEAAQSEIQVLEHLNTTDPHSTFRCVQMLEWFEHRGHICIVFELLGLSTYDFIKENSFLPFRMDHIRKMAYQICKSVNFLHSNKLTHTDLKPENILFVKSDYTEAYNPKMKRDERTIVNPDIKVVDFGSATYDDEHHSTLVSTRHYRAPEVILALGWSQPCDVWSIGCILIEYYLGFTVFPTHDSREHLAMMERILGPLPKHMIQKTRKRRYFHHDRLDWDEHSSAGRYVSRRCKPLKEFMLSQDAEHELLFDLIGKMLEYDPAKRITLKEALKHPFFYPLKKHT
T9 sequence (P32298 whole entry): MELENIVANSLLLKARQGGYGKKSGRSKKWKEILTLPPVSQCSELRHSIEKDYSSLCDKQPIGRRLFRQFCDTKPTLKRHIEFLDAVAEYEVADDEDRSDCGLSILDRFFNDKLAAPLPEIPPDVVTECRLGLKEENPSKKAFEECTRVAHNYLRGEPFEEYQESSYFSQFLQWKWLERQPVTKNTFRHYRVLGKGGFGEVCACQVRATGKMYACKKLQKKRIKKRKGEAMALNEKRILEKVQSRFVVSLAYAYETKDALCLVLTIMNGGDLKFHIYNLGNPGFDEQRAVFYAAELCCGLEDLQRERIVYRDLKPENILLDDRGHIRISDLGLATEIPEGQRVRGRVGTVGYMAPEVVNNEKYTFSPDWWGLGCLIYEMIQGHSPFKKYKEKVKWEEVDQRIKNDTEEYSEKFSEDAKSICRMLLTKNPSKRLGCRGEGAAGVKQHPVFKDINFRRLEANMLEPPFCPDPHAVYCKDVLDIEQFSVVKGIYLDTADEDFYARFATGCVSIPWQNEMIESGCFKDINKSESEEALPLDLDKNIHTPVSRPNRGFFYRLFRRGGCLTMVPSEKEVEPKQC
T5 sequence (P11362 22-822): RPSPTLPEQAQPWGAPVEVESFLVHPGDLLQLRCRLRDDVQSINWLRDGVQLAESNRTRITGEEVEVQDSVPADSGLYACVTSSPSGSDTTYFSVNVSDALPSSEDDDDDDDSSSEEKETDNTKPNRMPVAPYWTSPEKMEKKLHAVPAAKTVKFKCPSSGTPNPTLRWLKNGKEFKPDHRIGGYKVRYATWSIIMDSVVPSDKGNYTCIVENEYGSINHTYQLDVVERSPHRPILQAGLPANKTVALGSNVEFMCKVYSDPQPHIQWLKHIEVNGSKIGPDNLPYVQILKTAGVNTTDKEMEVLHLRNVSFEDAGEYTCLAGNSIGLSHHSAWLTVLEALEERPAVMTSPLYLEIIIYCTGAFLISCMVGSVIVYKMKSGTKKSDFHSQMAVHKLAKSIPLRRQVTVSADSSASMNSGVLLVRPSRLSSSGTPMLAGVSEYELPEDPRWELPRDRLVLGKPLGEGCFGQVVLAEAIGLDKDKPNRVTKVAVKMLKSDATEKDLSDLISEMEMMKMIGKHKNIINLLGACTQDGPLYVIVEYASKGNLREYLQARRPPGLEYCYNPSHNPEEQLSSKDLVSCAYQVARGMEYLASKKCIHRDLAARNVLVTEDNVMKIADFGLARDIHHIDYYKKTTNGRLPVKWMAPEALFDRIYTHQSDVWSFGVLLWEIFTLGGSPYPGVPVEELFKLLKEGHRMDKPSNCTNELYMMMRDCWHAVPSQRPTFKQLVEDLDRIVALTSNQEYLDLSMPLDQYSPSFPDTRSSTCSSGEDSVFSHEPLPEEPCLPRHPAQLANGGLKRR
T15 sequence (P49137 whole entry): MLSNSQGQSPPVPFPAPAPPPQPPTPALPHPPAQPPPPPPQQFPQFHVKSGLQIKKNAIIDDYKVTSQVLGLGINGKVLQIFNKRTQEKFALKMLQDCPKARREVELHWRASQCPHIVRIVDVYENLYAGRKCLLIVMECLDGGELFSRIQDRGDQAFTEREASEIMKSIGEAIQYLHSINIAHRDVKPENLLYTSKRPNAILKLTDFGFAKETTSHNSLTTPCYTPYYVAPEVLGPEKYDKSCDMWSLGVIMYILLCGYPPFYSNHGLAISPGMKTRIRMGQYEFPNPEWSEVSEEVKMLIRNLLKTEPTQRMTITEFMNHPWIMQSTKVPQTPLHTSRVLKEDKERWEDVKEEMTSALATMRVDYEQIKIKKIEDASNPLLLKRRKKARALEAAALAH
T27 sequence (P62344 whole entry): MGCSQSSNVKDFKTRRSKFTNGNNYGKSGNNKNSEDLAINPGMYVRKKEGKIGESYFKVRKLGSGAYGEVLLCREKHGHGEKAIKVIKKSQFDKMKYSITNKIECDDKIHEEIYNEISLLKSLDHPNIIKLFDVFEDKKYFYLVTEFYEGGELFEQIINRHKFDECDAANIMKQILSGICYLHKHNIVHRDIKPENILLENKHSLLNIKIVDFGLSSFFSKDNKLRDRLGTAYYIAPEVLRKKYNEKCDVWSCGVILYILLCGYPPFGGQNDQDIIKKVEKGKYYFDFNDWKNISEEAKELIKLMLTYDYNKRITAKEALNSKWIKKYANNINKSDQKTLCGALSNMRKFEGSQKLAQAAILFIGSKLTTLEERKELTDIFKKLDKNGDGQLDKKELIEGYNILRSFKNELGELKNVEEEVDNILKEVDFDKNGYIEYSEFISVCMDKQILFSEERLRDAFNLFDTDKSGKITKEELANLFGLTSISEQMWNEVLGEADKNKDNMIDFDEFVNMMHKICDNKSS
T22 sequence (Q8NG66 whole entry): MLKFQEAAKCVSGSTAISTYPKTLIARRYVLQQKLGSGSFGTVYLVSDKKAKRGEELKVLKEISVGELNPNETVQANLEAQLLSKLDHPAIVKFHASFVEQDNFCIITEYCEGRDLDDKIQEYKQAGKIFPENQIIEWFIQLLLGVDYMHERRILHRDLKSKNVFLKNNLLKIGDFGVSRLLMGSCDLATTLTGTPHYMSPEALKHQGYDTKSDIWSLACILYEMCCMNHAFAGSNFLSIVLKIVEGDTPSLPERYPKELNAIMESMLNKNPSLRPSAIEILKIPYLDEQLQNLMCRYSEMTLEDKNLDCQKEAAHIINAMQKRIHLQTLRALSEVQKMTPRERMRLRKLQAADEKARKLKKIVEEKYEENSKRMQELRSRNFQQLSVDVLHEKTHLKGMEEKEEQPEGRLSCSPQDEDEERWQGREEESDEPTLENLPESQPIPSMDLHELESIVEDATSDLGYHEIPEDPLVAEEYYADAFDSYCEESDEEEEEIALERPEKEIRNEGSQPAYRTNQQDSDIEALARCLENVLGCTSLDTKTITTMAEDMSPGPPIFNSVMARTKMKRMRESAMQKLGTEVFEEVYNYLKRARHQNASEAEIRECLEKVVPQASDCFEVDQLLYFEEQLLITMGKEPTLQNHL
T36 sequence (Q9UKE5 whole entry): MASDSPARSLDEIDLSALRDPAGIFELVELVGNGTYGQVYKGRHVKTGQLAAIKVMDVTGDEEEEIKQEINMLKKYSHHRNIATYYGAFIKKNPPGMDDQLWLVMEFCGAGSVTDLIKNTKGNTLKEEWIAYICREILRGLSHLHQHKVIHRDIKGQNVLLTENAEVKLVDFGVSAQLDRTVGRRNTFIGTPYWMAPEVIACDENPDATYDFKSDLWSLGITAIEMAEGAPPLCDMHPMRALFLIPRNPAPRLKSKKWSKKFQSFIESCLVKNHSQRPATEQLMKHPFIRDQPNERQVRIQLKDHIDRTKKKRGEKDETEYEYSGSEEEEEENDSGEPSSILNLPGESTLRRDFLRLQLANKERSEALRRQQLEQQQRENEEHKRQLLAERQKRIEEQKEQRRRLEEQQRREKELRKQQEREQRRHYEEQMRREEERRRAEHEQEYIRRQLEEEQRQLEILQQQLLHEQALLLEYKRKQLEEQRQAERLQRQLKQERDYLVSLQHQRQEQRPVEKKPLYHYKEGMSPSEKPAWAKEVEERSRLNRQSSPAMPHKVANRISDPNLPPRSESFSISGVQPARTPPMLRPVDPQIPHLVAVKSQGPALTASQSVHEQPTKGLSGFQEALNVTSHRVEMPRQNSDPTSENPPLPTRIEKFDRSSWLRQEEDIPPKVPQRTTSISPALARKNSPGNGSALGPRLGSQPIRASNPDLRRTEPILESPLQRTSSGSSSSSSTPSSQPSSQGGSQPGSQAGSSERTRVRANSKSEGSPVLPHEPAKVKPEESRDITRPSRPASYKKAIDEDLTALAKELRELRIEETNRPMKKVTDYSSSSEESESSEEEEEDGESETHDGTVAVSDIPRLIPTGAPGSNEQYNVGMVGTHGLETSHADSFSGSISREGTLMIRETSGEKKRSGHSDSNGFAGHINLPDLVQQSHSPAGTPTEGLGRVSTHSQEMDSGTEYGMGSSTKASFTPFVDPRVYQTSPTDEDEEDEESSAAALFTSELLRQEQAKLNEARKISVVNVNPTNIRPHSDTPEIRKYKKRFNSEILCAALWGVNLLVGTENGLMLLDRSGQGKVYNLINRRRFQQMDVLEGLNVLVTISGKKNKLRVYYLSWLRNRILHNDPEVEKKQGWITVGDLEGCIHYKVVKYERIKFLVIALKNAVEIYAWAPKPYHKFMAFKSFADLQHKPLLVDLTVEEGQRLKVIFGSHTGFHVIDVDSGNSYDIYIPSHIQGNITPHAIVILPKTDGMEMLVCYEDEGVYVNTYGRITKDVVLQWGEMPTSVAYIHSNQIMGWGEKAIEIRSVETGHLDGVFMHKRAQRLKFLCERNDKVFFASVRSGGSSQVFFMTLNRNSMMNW

Cc1ccc(-n2cc(COc3cccc4cnc(Nc5cccc(Cl)c5)nc34)nn2)c([N+](=O)[O-])c1 [DB18]
remaining binding at 1 µM [1]: 100% | remaining binding at 1 µM [2]: 100% | remaining binding at 1 µM [3]: 91% | remaining binding at 1 µM [4]: 57% | remaining binding at 1 µM [5]: 100% | remaining binding at 1 µM [6]: 100% | remaining binding at 1 µM [7]: 100% | remaining binding at 1 µM [8]: 55% | Percent Control [9]: 62 % Ctrl | remaining binding at 1 µM [10]: 100% | remaining binding at 1 µM [11]: 33% | remaining binding at 1 µM [12]: 96% | remaining binding at 1 µM [13]: 100% | remaining binding at 1 µM [14]: 93% | remaining binding at 1 µM [15]: 99% | remaining binding at 1 µM [16]: 100% | remaining binding at 1 µM [17]: 100% | remaining binding at 1 µM [18]: 89% | remaining binding at 1 µM [19]: 99% | remaining binding at 1 µM [20]: 89% | remaining binding at 1 µM [21]: 100% | remaining binding at 1 µM [22]: 100% | remaining binding at 1 µM [23]: 100% | remaining binding at 1 µM [24]: 100% | remaining binding at 1 µM [25]: 100% | remaining binding at 1 µM [26]: 100% | remaining binding at 1 µM [27]: 100% | remaining binding at 1 µM [28]: 100% | remaining binding at 1 µM [29]: 95% | remaining binding at 1 µM [30]: 97% | remaining binding at 1 µM [31]: 100% | remaining binding at 1 µM [32]: 100% | remaining binding at 1 µM [33]: 28% | remaining binding at 1 µM [34]: 100% | remaining binding at 1 µM [35]: 100% | remaining binding at 1 µM [36]: 99% | remaining binding at 1 µM [37]: 100% | % of residual activity Mm_CLK1 ([38]; 1 µM): 21% | % of residual activity Mm_CLK1 ([38]; 10 µM): 11% | IC50 [39]: 25 µM | IC50 [40]: 4 µM
